Measured values published in patent publication US8771733B2, “Pharmaceutical composition containing an anti-nucleating agent” (Merck Sharp & Dohme Corp., priority 2004, dated 2014).
Where a name gives a salt, the structure may show the parent alone.

How the values were obtained:
[1] = Hygroscopicity (vapor sorption analysis); format: physicochemical
Experimental: Hygroscopicity data was obtained on a VTI Symmetrical Vapor Sorption Analyzer Model SGA-1. Data was collected at room temperature from 5-95% relative humidity and back, 5% relative humidity change per step. Equilibrium conditions were 0.01 weight percent change in 5 minutes with a maximum equilibration time of 180 minutes.

[2] = In vitro dissolution studies with bulk drug and granules at 37° C.; format: physicochemical; settings: dissolution times of 60 to 180 minutes
Experimental: The dissolution properties of tablets prepared in the manner described in Part A of Example 3 (i.e., tablets containing 100 mg of Compound A on a free phenol basis and 0, 5, 10 or 15 wt. % HPMC) were tested in the following manner: Two tablets containing 0, 5, 10, or 15 wt. % HPMC were added to a USP Type II dissolution vessel containing 500 mL of 0.01 N HCl (pH=2) as the dissolution medium (ambient temperature). After the tablets were allowed to sink to the bottom of the vessel, the medium was stirred at 100 rpm for 60 minutes and then at 150 rpm for up to an additional 120 minutes. Samples (5 mL) were removed from medium at 5, 10, 15, 20, 30, 60, 90 and 120 minutes and at the conclusion of the test (180 minutes). Each sample was diluted 1:1 with 50:50 (volume:volume) acetonitrile:water, and then analyzed via HPLC or W spectrophotometry to determine the concentration of Compound A in the solution. (Note: The HPLC and UV methods were determined to be equivalent; the choice of method for a particular test was based on such factors as equipment availability.)
In vitro dissolution studies similar to the study described above, but conducted with unformulated bulk Compound A K salt and formulated bulk in granules and conducted at 37° C.

Compound: Cc1nnc(C(=O)NC(C)(C)c2nc(C(=O)NCc3ccc(F)cc3)c(O)c(=O)n2C)o1 [Compound A K salt]
- weight when equilibrated back down to 5% RH ([1]; 5% RH, after 95% RH): returned back to approximately its dry weight
- weight increase when equilibrated at 95% RH ([1]; 95% RH at 25° C.): 1.8%
- XRPD analysis of the material after the hygroscopicity experiment (phase) ([1]; after 5-95% RH and back): had not changed phases
- enhancement in drug solubility in the presence of HPMC versus absence of HPMC [2]: 10 fold
